Numbered stars: 1 amine (or outer) side, 2 acyl side, 3 side chain; on linkers, the order of the positions; unused ones are H or OH. Square brackets hold non-standard residues; d marks the D form. Peptide text beside a SMILES is read from it. ξ: configuration not given here. X1 = CC(=O)OC(C)(C)C[C@@H](C(=O)[*:2])N(C)[*:1]; ξNMeBmt = C/C=C/C[C@@H](C)[C@@H](O)C(NC)C(=O)O; dNMeL = CN[C@H](CC(C)C)C(=O)O; dNMeV = CN[C@@H](C(=O)O)C(C)C; dAbu = CC[C@@H](N)C(=O)O; Sar = CNCC(=O)O
Legend:
IL-2 = assay: T Cell stimulation (IL-2) in Jurkat cells with anti-CD3 and anti-CD28 co-stimulation; format: cell-based; details: Homo sapiens, supernatant after 6 hours
Experimental: Compounds of formula (I) were tested for their T Cell stimulation (IL-2) in Jurkat cells with anti-CD3 and anti-CD28 co-stimulation. […] All compounds to be tested were dissolved in dimethyl sulfoxide. Cytotoxicity was evaluated with parallel Alamar Blue plates. Jurkat cells were seeded at 2×10^5 cells per well in 190 μL growth media in a 96-well plate. Cells were cultured in RPMI 1640 medium, 10% fetal bovine serum, and L-Glutamine with incubation at 37° C. with 5% carbon dioxide. After 1 hour of incubation the cells were stimulated with immobilized anti-CD3 (0.4 μg/well), anti-CD28 soluble (2 μg/mL). After 6 hours the sample supernatants were harvested and stored at −80° C. 50 μL samples of supernatant were tested for IL-2 using a Luminex® 1-plex assay.

[1] = system: Mitochondria prepared from rat livers; assay: Mitochondrial permeability transition (Ca2+-induced mitochondrial swelling); format: biochemical; details: rat liver mitochondria, swelling induced by 150 micro molar Ca2+, compounds added 5 minutes before; read-out: MPT EC50 (inhibition of mitochondrial swelling)
Experimental: Mitochondrial permeability transition (MPT) was determined by measuring swelling of the mitochondria induced by Ca^2+. The procedure was adapted from the method described by Blattner et al., 2001, Analytical Biochem., 295: 220. Mitochondria were prepared from rat livers, which had been perfused with phosphate-buffered saline (PBS) to remove blood, using standard methods that utilized gentle homogenization in sucrose based buffer and then differential centrifugation to first remove cellular debris and then to pellet the mitochondria. Swelling was induced by 150 micro molar Ca^2+ (added from a concentrated solution of Calcium chloride) and was monitored by measuring the scattering at 535-540 nm. Representative compounds were added 5 minutes before swelling was induced. EC50 were determined by comparing swelling with and without the compounds of formula (I).

Question: For `C/C=C/C[C@@H](C)[C@@H](O)C1C(=O)N[C@H](CC)C(=O)N(C)CC(=O)N(C)[C@@H](CC(C)(C)OC(C)=O)C(=O)N[C@H](C(C)C)C(=O)N(C)[C@H](CC(C)C)C(=O)N[C@H](C)C(=O)N[C@@H](C)C(=O)N(C)[C@H](CC(C)C)C(=O)N(C)[C@H](CC(C)C)C(=O)N(C)[C@H](C(C)C)C(=O)N1C` (some centres unmarked) [Compound E, [4′-acetoxy-N-methylleucine]^4cyclosporine A] (cyclo(A[dNMeL][dNMeL][dNMeV][ξNMeBmt][dAbu][Sar][X1][dV][dNMeL][dA])), which EC50 (IL-2) is on record?
Answer: < 0.01 µM

Question: “[4′-hydroxy-N-methylleucine]^4cyclosporine A S-benzyl-4′-thiocarbonate [Compound X]” was tested. Which EC50 [1] did it give?
Answer: > 30 µM
